Data taken from patent US8592423B2, “Inhibitors of PDE10” (Bristol-Myers Squibb Company, priority 2011, dated 2013).

What follows are molecules tested against PDE10 (Homo sapiens (Human), UniProt Q9Y233) (assay: LE_PDE10A inhibition assay (SPA, cAMP hydrolysis)). Settings: 3H-cAMP at Km 25 nM, read-out: IC50.
Assay type: biochemical
Protocol: LE_PDE10A Inhibition Assay:
The PDE10 inhibition assay in 384-well plates was conducted to identify substances for the inhibition of cyclic nucleotide hydrolysis by the PDE10 enzyme. […] PDE10 activity was measured using Scintillation Proximity Assay (SPA)-based methods. PDE10 catalyses the hydrolysis of the intracellular messenger adenosine […] (cAMP) to the non-cyclic adenosine 5′-monophosphate (AMP). The SPA assay was based upon the selective interaction of the tritiated product with yttrium oxide LEADseeker beads.
The assay buffer contained 25 mM HEPES pH 7.4, 2.5 mM Magnesium Chloride and 0.1% BSA. […] The reaction was terminated by adding 6 μL of 5 mg/mL of yttrium oxide LEADseeker beads. The beads were allowed to settle for 3 hours before plates were read in the LEEDSeaker for 6 minutes. The measured signal ccould be converted to activity relative to an […] control (100%). IC50 values were calculated by using in-house data software and IC50 values were generated by nonlinear regression analysis. (Bristol-Myers Squibb Company, Wallingford, Conn.).

Chain of PDE10 (Q9Y233 whole entry): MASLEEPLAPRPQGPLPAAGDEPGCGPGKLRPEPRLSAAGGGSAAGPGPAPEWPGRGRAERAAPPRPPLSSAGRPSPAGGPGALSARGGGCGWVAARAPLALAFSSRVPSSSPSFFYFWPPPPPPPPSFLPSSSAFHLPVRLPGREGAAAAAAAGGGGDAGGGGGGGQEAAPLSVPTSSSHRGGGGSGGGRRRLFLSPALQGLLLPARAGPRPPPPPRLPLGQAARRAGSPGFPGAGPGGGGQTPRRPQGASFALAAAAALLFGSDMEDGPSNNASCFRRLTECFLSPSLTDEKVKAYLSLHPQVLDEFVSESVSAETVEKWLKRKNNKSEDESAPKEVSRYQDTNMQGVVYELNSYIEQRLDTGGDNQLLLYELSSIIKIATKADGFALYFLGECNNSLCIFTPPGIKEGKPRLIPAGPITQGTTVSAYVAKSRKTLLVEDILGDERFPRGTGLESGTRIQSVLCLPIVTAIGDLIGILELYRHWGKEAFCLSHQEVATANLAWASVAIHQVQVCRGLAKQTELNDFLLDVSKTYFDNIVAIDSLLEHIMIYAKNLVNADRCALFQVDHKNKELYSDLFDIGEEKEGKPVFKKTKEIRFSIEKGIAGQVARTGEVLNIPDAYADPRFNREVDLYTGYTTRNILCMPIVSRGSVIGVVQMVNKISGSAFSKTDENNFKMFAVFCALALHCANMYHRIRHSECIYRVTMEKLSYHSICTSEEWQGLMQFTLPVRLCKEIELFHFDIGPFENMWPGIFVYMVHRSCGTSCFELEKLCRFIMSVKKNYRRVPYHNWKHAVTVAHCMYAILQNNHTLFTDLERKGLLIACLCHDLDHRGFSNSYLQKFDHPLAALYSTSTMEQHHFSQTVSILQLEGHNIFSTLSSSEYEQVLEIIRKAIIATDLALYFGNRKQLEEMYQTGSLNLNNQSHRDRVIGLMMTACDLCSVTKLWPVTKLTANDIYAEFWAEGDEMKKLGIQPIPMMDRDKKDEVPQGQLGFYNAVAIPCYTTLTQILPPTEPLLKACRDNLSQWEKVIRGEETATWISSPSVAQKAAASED

Row | IC50 | SMILES
1 | 1.79 nM | Cc1ncc(C)n2nc(C3CC3c3nc(-c4ccccc4)cn3C)nc12 (racemic) [5,8-Dimethyl-2-(2-(1-methyl-4-phenyl-1H-imidazol-2-yl)cyclopropyl)-[1,2,4]triazolo[1,5-a]pyrazine]
2 | 14.5 nM | Cc1cc(C)n2nc(C3CC3c3nc(-c4ccccc4)cn3C)nc2n1 (stereo not drawn) [5,7-Dimethyl-2-(2-(1-methyl-4-phenyl-1H-imidazol-2-yl)cyclopropyl)-[1,2,4]-triazolo[1,5-a]pyrimidine]
3 | 6.65 nM | CCCn1cc(-c2ccccc2)nc1C1CC1c1nc2c(C)ncc(C)n2n1 (stereo not drawn) [5,8-dimethyl-2-(2-(4-phenyl-1-propyl-1H-imidazol-2-yl)cyclopropyl)-[1,2,4]triazolo[1,5-a]pyrazine]

Same assay, conditions: 3H-cAMP at Km 25 nM, read-out: Range (IC50)

Row | IC50 | SMILES
4 | 0.8 to 5 nM | Cc1ncc(C)n2nc(C3CC3c3nc(-c4ccccc4)cn3C)nc12 (single isomer, unassigned) [drawing 16, 5,8-dimethyl-2-(2-(1-methyl-4-phenyl-1H-imidazol-2-yl)cyclopropyl)-[1,2,4]triazolo[1,5-a]pyrazine]
5 | 10.1 to 40 nM | Cc1ncc(C)n2nc(C3CC3c3nc(-c4ccccc4)cn3C)nc12 (single isomer, unassigned) [drawing 17, 5,8-dimethyl-2-(2-(1-methyl-4-phenyl-1H-imidazol-2-yl)cyclopropyl)-[1,2,4]triazolo[1,5-a]pyrazine]
6 | 5.1 to 10 nM | CCn1cc(-c2ccccc2)nc1C1CC1c1nc2c(C)ncc(C)n2n1 (stereo not drawn) [2-(2-(1-Ethyl-4-phenyl-1H-imidazol-2-yl)cyclopropyl)-5,8-dimethyl-[1,2,4]triazolo[1,5-a]pyrazine]
